The text below walks through data of BindingDB's records for doi:10.7270/Q27W69N8 (Srmlsc, 2009).

The assay addresses T1, M17 leucyl aminopeptidase (Plasmodium falciparum (isolate 3D7), UniProt Q8IL11).
T1 sequence (Q8IL11 whole entry): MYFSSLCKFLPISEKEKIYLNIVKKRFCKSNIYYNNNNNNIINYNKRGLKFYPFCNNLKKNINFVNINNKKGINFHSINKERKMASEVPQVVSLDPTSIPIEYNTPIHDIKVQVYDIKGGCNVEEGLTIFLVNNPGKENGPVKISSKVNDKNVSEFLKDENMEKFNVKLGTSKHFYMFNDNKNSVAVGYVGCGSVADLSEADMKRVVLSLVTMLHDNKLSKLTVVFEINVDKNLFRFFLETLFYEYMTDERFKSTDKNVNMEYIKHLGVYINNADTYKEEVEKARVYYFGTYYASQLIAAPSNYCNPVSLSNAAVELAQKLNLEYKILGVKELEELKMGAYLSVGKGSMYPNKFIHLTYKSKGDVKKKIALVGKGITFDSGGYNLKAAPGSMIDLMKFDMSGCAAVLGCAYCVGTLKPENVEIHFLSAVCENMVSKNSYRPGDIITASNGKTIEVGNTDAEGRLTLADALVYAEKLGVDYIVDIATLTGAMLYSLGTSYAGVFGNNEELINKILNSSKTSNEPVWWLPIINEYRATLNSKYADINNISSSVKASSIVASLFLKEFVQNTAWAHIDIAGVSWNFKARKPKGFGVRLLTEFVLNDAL
As to the kind of experiment: P. falciparum M17LAP inhibitors, primary screen, biochemical, fluorogenic H-Leu-NHMec substrate, 1536-well (AID 1619).
What is called IC50 is the point on the concentration scale where inhibition reaches its midpoint. A high value points to weaker potency. With `CC(C)(C)OC(=O)C1=[N+]2N[CH-]c3ccccc3C2C2(C(=O)c3ccccc3C2=O)[C@H]1c1ccc([N+](=O)[O-])cc1` (stereo partly drawn) [(2R,3R)-2-(4-nitrophenyl)-1',3'-dioxo-3-spiro[3,10b-dihydro-2H-pyrrolo[2,1-a]phthalazine-1,2'-indene]carboxylic acid tert-butyl ester], the IC50 stood at 2.23 µM.
The figure for `Cc1ccc(C2C(C(=O)c3ccc(Br)cc3)C(=O)C(=O)N2Cc2ccco2)o1` (stereo not drawn) [(4Z)-4-[(4-bromophenyl)-hydroxy-methylene]-1-(2-furfuryl)-5-(5-methyl-2-furyl)pyrrolidine-2,3-quinone] is 66.4 µM; for `N#CC1C(=N)Oc2[nH]nc(-c3ccccc3)c2C1c1cccnc1` (stereo not drawn) [MLS000030179] it is 60.4 µM.
In the case of `N#CC1C(=N)Oc2[nH]nc(-c3ccc(F)cc3)c2C1c1cccnc1` (stereo not drawn) [MLS000043841], inhibition was half-maximal at 61.2 µM (IC50).
`Cc1nc2c([nH]1)C1(CCN(Cc3ccccc3)CC1)C(C#N)C(=N)O2` (stereo not drawn) [MLS000047918]: inhibition was half-maximal at 63.2 µM (IC50). The IC50 values of the last two compounds are within 1.5-fold of each other.
The figure for `O=NCc1c[nH]c2ccccc12` [MLS000104363] is 13.2 µM; for `CC(C)CC1c2c(-c3ccccc3)n[nH]c2OC(=N)C1C#N` (stereo not drawn) [MLS000121961] it is 33.7 µM; for `O=C1c2ccccc2C(=O)C1C1=NC(C(=O)O)c2c1c(O)n(-c1ccc(Cl)cc1)c2O` (stereo not drawn) [MLS000331181] it is 71.6 µM.
Then `CN(C)c1ccc(/N=N/c2ccccc2C(=O)OCC(=O)N2CCCC2)cc1` [MLS000374806], with 9.23 µM.
`C/C(=C\c1ccco1)C1c2c(-c3ccc(C)cc3)n[nH]c2OC(=N)C1C#N` (stereo not drawn) [MLS000519110] had an IC50 of 132 µM.
Compound `COc1cccc(-c2n[nH]c3c2C(c2ccoc2)C(C#N)C(=N)O3)c1` (stereo not drawn) [MLS000558215] had an IC50 of 76.8 µM.
`CCOC(=O)C1C(=O)C(=Cc2ccc(OCC(=O)O)c(OCC)c2)SC1=Nc1ccc(OC)cc1` (stereo not drawn) [MLS000704394] had an IC50 of 21.3 µM.
Compound `CC(=NNC(=O)Cc1c(C)[nH][nH]c1=O)c1ccco1` [MLS000723689] gave a 50% inhibitory concentration (IC50) of 12.3 µM.
The figure for `CCOc1ccc(-n2c(O)cc(Sc3nnc(-c4ccccc4)[nH]3)c2O)cc1` [MLS000765380] is 11.1 µM; for `Cc1[nH][nH]c(=O)c1CCC(=O)NN=CC(Br)=Cc1ccccc1` [N'-(2-bromo-3-phenyl-2-propen-1-ylidene)-3-(3-methyl-5-oxo-4,5-dihydro-1H-pyrazol-4-yl)propanohydrazide] it is 8 µM.
`Cc1[nH][nH]c(=O)c1CCC(=O)NN=Cc1cccc(Cl)c1` [N'-[(1Z)-(3-chlorophenyl)methylene]-3-(3-methyl-5-oxo-4,5-dihydro-1H-pyrazol-4-yl)propanohydrazide] displayed an IC50 of 20.9 µM.
On to `COc1cccc(C=NNC(=O)Cc2c(C)[nH][nH]c2=O)c1O` [N'-[(E)-(5-methoxy-6-oxocyclohexa-2,4-dien-1-ylidene)methyl]-2-(3-methyl-5-oxo-1,4-dihydropyrazol-4-yl)acetohydrazide], for which the IC50 came to 92.1 µM.
Compound `COc1ccc(NC(=O)CSc2nc(C)cc(=O)[nH]2)cc1` [N-(4-methoxyphenyl)-2-[(4-methyl-6-oxo-5H-pyrimidin-2-yl)sulfanyl]acetamide] registered an IC50 of 3.09 µM.
In the case of `CCOc1cc(C2c3c(-c4ccccc4)n[nH]c3OC(=N)C2C#N)ccc1O` (stereo not drawn) [SMR000019337], inhibition was half-maximal at 77.1 µM (IC50).
In turn, `CC(=O)N1CCC2(CC1)c1c(CSc3ccc(C)cc3)n[nH]c1OC(=N)C2C#N` (stereo not drawn) [SMR000036525] came in with an IC50 of 21.1 µM.
As for `Cc1ccc(-c2n[nH]c3c2C(c2ccoc2)C(C#N)C(=N)O3)cc1C` (stereo not drawn) [SMR000078160], the IC50 is 3.65 µM.
The figure for `Cc1ccc(-c2ccc([CH+][N-]Nc3nc(O)c(CC(=O)O)s3)o2)c([N+](=O)[O-])c1` [SMR000135699] is 101 µM.
Compound `Cc1cc(-c2n[nH]c3c2C(c2cccc(O)c2)C(C#N)C(=N)O3)c(C)s1` (stereo not drawn) [SMR000136653] registered an IC50 of 52.8 µM.
`Cc1ccc(-c2n[nH]c3c2C(c2ccsc2)C(C#N)C(=N)O3)cc1` (stereo not drawn) [SMR000143666]: the IC50 was 11.3 µM.
`COc1cccc(C=NNC(=O)Cc2c(C)[nH][nH]c2=O)c1OC` [SMR000147373] came in with an IC50 of 23.5 µM. Against the preceding compound, the IC50 is about 2.1-fold higher.
The figure for `O=C1c2ccccc2C(=O)C1C1=NC(C(=O)O)c2c1c(O)n(-c1ccccc1)c2O` (stereo not drawn) [SMR000168620] is 68 µM; for `CCc1nnc(NS(=O)(=O)c2ccc(N=CCC(=O)c3cccc4ccccc34)cc2)s1` [SMR000172027] it is 10.1 µM; for `Cc1ccc(S(=O)(=O)Oc2cccc(-n3c(O)c4c(c3O)CC=CC4)c2)cc1` [SMR000197106] it is 49.6 µM.
Then `CC(CCC1CC(C)OC1=O)N=Nc1nc(-c2ccccc2)cs1` (stereo not drawn) [SMR000204131], with 30.8 µM; and `O=C1C=C/C(=C/NN2C(=O)C3C4C=CC(CC4)C3C2=O)C=C1O` (stereo not drawn) [SMR000207592], with 34.3 µM; and `CC(CC1CC(C)(C)OC1=O)N=Nc1nc(-c2ccccc2)cs1` (stereo not drawn) [SMR000220752], with 52.8 µM.
`Cc1cc(C=C2C(=O)NC(=O)N(c3ccc(F)cc3)C2=O)c(C)n1-c1ccc(C(=O)O)cc1` [SMR000273525] showed an IC50 of 149 µM.
Consider `CC(=NNC(=O)Cc1c(C)[nH][nH]c1=O)c1cccs1` [SMR000305285], for which the IC50 was found to be 3.56 µM.
Compound `N#Cc1c(NC=C2C(=O)NC(=S)NC2=O)sc2c1CCCC2` [SMR000305847] gave an IC50 of 110 µM.
Regarding `O=C(Nn1c(O)csc1=S)C(=O)Nn1c(O)csc1=S` [SMR000349781], the IC50 came to 20.5 µM.
Consider `O=C(O)c1ccc(CN=Nc2ccc(F)cc2F)cc1` [SMR000364892], for which the IC50 was determined as 99.4 µM.
For the compound `Cc1ccc(CN=Nc2ccc(C(=O)O)cc2)s1` [SMR000364894], the IC50 came out at 20.4 µM. Against the preceding compound, the IC50 is about 4.9-fold lower.
The compound `O=C(O)c1cc(N=NCc2ccc(OCc3ccccc3)cc2)ccc1Cl` [SMR000364895] came in with an IC50 of 20 µM.
Then `CN(C)c1ccc(/N=N/c2ccccc2C(=O)OCC(=O)N(C)C2CCCCC2)cc1` [[2-[cyclohexyl(methyl)amino]-2-oxidanylidene-ethyl] 2-[[4-(dimethylamino)phenyl]diazenyl]benzoate], with 15.2 µM; and `Cc1c(C)c(O)c(C=CCCC#CCCCC#CCO)c(C)c1O` [docebenone], with 53.4 µM; and `CCOC(O)c1oc2c(c(=O)c1-c1nncn1-c1ccccc1)C=CC(=O)C2=O` (stereo not drawn) [ethyl 7,8-dihydroxy-4-oxo-3-(4-phenyl-4H-1,2,4-triazol-3-yl)-4H-chromene-2-carboxylate], with 6.58 µM.
With `O=C(O)[C@H]1O[C@@H](Oc2c(-c3ccc(O)c(O)c3)oc3cc(O)cc(=O)c-3c2O)[C@H](O)[C@@H](O)[C@@H]1O` [quercetin glucuronide], the IC50 amounted to 48.2 µM.
Take `O=C(O)c1ccc(N=NCc2ccc(C(F)(F)F)cc2)cc1` [sulfuric acid;4-[(N'E)-N'-[4-(trifluoromethyl)benzylidene]hydrazino]benzoic acid]: it took 46.3 µM to reach half-maximal inhibition (IC50).
